# Structures can show the parent of a compound that is named as a salt. Where two headings read alike, the source gives them in different places.
# Key:
# Assay type in all cases: in vivo
# [1] = tested on: acetylcholine-induced abdominal constriction; assay: acetylcholine-induced abdominal constriction test (ACH); details: mice; for inhibition in vivo at 100 mg/kg / ED50: Mus musculus; for inhibition in vivo at 100 mg/kg: dose level 100, read-out: ACH percent inhibition at dose 100
# Text: J. Pharmacol. Chemotherap. 32, 295 (1968); a modification of the anti-bradykinin test, which is also a primary analgesic screening procedure, described by Berkowitz et al., J. Pharmacol. Exptl. Therap. 177, 500-508 (1971), Blane et al., J. Pharm. Pharmacol. 19, 367-373 (1967), Botha et al., Eur. J. Pharmacol. 6, 312-321 (1969) and Deffenu et al., J. Pharm. Pharmacol. 18, 135 (1966); and the Randall-Selitto analgesic test described by Randall and Selitto, Arch. Int. Pharmacodyn., 111, 409-419 (1957).
# Data in the developing adjuvant arthritis (AA) and plasma fibronectin (FN) assays are expressed as percent inhibition, i.e. inhibition of non-injected paw inflammation (NIP) and injected paw (RPV) and lowering of plasma fibronectin, the asterisks * and ** indicating statistical significance at the p<0.01 and p<0.05 levels, respectively. […] Non-statistically significant results are recorded as "------ ". In the acetylcholine-induced abdominal constriction test, the test compounds were administered either as suspensions in gum tragacanth (GT) or as aqueous solutions prepared by addition of just sufficient dilute aqueous methanesulfonic acid (MS) or dilute aqueous lactic acid (LA) to dissolve the compound. The compounds are identified by the example number above where their preparations are described. All data in the anti-bradykinin, rat writhing and Randall-Selitto tests were obtained on oral administration.
# [2] = tested on: acetic acid-induced writhing; assay: acetic acid-induced writhing assay in the rat (RW); details: oral administration
# Description: (§1) Data in the developing adjuvant arthritis (AA) and plasma fibronectin (FN) assays are expressed as percent inhibition, i.e. inhibition of non-injected paw inflammation (NIP) and injected paw (RPV) and lowering of plasma fibronectin, the asterisks * and ** indicating statistical significance at the p<0.01 and p<0.05 levels, respectively. Compounds are considered active at p<0.05 level. Non-statistically significant results are recorded as "------ ". In the acetylcholine-induced abdominal constriction test, the test compounds were administered either as suspensions in gum tragacanth (GT) or as aqueous solutions prepared by addition of just sufficient dilute aqueous methanesulfonic acid (MS) or dilute aqueous lactic acid (LA) to dissolve the compound. The compounds are identified by the example number above where their preparations are described. All data in the anti-bradykinin, rat writhing and Randall-Selitto tests were obtained on oral administration.
# [3] = tested on: adjuvant induced arthritis; assay: developing adjuvant arthritis (AA) assay; design: key: Non-statistically significant results are recorded as "------ "; details: arthritic rats; printed * = p<0.01, ** = p<0.05
# Description: Antirheumatic and anti-inflammatory activities of the compounds of the invention were determined using the developing adjuvant arthritis assay in rats and the plasma fibronectin assay in arthritic rats. The developing adjuvant arthritis assay was used in conjunction with the plasma fibronectin assay as a primary screening method in the evaluation of compounds for potential use as disease modifying anti-rheumatic drugs. The procedure used to induce arthritis in rats is a modification of the methods published by Pearson, J. Chron. Dis. 16, 863-874 (1973) and by Glenn et al., Amer. J. Vet. Res. 1180-1193 (1965). Adjuvant induced arthritis bears many of the traits of rheumatoid arthritis. It is a chronic, progressive, deforming arthritis of the peripheral joints, with a primary mononuclear cell response consisting of bone and joint space invasion by pannus. In order to detect disease modifying anti-rheumatic drug activity, drug treatment is started before the disease has become irrevocably established. Since such drugs are not designed to be administered prophylactically, drug treatment of adjuvant arthritis is initiated at a time when the disease is developing but is not yet irreversible. Animals develop significant systemic arthritic disease which can be measured by swelling of the non-injected rear paw (NIP) 15 to 20 days following an initial injection on day 1 of complete Freund's adjuvant into the right hindfoot paw.
# as §1
# [4] = Table 9, Examples, no route marked in the cell, read-out: ACH ED50
compound,measurement,setting,value
"Cc1cc2ccccc2n1CC1CN(C)CCO1 (racemic) [Preparation 1A, 1-[(4-methyl-2-morpholinyl)methyl]-2-methyl-1H-indole]",inhibition in vivo at 100 mg/kg,"[1]; Table 10, Prepn. No.",10%
Cc1c(C(=O)c2ccccc2F)c2ccccc2n1C[C@@H]1CC[C@@H](C)N1C (relative stereo) [Example 1AD],ED50,[1]; [4],34 mg/kg
COc1ccc(C(=O)c2c(C)n(C[C@@H]3CC[C@@H](C)N3Cc3ccccc3)c3ccccc23)cc1 (relative stereo) [Example 1AE],inhibition in vivo at 100 mg/kg,[1]; Table 9,30%
"COc1ccc(C(=O)c2c(C)n(CC3CCCN3C)c3ccccc23)cc1 (single isomer, unassigned) [2E(1), (1)1-(1-methyl-2-pyrrolidinylmethyl)-2-methyl-3-(4-methoxybenzoyl)-1H-indle hydrochloride]",ACH ED50,"[1]; Table 9, Examples, no route marked in the cell, hydrochloride",35 mg/kg
same,RW ED50,[2]; hydrochloride,13 mg/kg
"COc1ccc(C(=O)c2c(C)n(CC3CCCN3C)c3ccccc23)cc1 (single isomer, unassigned) [2E(d), (d)1-(1-methyl-2-pyrrolidinylmethyl)-2-methyl-3-(4-methoxy-benzoyl)-1H-inole hydorochloride]",ED50,[1]; [4],47 mg/kg
same,ACH ED50,"[1]; Table 9, Examples, no route marked in the cell",36 mg/kg
same,RW ED50,[2],30 mg/kg
COc1ccc(C(=O)c2c(C)n(C3CCCN(C)C3)c3ccccc23)cc1 (stereo not shown) [2AG(b)],ED50,[1]; [4],30 mg/kg
COc1ccc(C(=O)c2c(C)n(CC3CCCN3Cc3ccccc3)c3ccccc23)cc1 (stereo not shown) [Example 1AG],inhibition in vivo at 100 mg/kg,[1]; Table 9,0%
COc1ccc(C(=O)c2c(C)n(C3CCN(C)CC3)c3ccccc23)cc1 [Example 1B],NIP: percent inhibition of non-injected paw inflammation,[3],88%
same,RPV: percent inhibition of injected paw,[3],65%
same,ED50,[1]; [4],69 mg/kg
Cc1c(C(=O)c2ccc(O)cc2)c2ccccc2n1CC1CN(C)CCO1 (stereo not shown) [Example 1D],inhibition in vivo at 100 mg/kg,[1]; Table 9,10%
COc1ccc(C(=O)c2cn(CC3CCCN(C)C3)c3ccc(F)cc23)cc1 (stereo not shown) [Example 1H],NIP: percent inhibition of non-injected paw inflammation,[3],92%
same,RPV: percent inhibition of injected paw,[3],63%
same,inhibition in vivo at 100 mg/kg,[1]; Table 9,20%
Cc1c(C(=O)c2ccc(Cl)cc2)c2ccccc2n1CC1CCCN(C)C1 (stereo not shown) [Example 1L],NIP: percent inhibition of non-injected paw inflammation,[3],83%
same,RPV: percent inhibition of injected paw,[3],60%
same,ED50,[1]; [4],62 mg/kg
Cc1c(C(=O)c2cccc(F)c2)c2ccccc2n1CC1CCCN(C)C1 (stereo not shown) [Example 1O],ED50,[1]; [4],71 mg/kg
CN1CCCC(Cn2cc(C(=O)c3ccccc3)c3ccccc32)C1 (stereo not shown) [Example 1Q],ED50,[1]; [4],45 mg/kg
CN1CCCCC(n2cc(C(=O)c3cccc4ccccc34)c3ccccc32)C1 (stereo not shown) [Example 1R],inhibition in vivo at 100 mg/kg,[1]; Table 9,20%
COc1ccc(C(=O)c2c(C(C)C)n(CC3CCCN(C)C3)c3ccc(F)cc23)cc1 (stereo not shown) [Example 1S],NIP: percent inhibition of non-injected paw inflammation,[3],73%
same,RPV: percent inhibition of injected paw,[3],36%
same,ED50,[1]; [4],21 mg/kg
COc1cccc(C(=O)c2c(C)n(CC3CCCN(C)C3)c3ccccc23)c1 (stereo not shown) [Example 1T],ED50,[1]; [4],64 mg/kg
COc1ccc(C(=O)c2c(C(C)C)n(CC3CCCN(C)C3)c3ccccc23)cc1 (stereo not shown) [Example 1U],ED50,[1]; [4],22 mg/kg
COc1ccc(C(=O)c2c(C)n(C3CCN(Cc4ccccc4)C3)c3ccccc23)cc1 (stereo not shown) [Example 1W],inhibition in vivo at 100 mg/kg,[1]; Table 9,35%
"COc1ccc(C(=O)c2c(C)n(CCC3CCCN3C)c3ccc(F)cc23)cc1 (stereo not shown) [Example 2A, 5-fluoro-2-methyl-1-[2-(1-methyl-2-pyrrolidinyl)ethyl]-3-(4-methoxybenzoyl)-1H-indole hydrochloride hemihydrate]",NIP: percent inhibition of non-injected paw inflammation,[3],86%
same,RPV: percent inhibition of injected paw,[3],69%
same,ED50,[1]; [4],32 mg/kg
CN1CCCC(Cn2cc(C(=O)c3ccccc3F)c3ccccc32)C1 (stereo not shown) [Example 2AA],ED50,[1]; [4],65 mg/kg
CN1CCCCC(n2cc(C(=O)c3ccccc3F)c3ccccc32)C1 (stereo not shown) [Example 2AD],inhibition in vivo at 100 mg/kg,[1]; Table 9,20%
COc1ccc(C(=O)c2c(C)n(CC3CN(C(c4ccccc4)c4ccccc4)C3)c3ccccc23)cc1 [Example 2AL],inhibition in vivo at 100 mg/kg,[1]; Table 9,20%
Cc1c(C(=O)c2ccc([N+](=O)[O-])cc2)c2ccccc2n1CC1CCCN(C)C1 (stereo not shown) [Example 2AN],inhibition in vivo at 100 mg/kg,[1]; Table 9,30%
COc1ccc(C(=O)c2cn(CCC3CCCN3C)c3ccc(F)cc23)cc1 (stereo not shown) [Example 2C],NIP: percent inhibition of non-injected paw inflammation,[3],55%
same,RPV: percent inhibition of injected paw,[3],27%
same,ED50,[1]; [4],49 mg/kg
CCc1ccc(C(=O)c2c(C)n(CC3CCCN(C)C3)c3ccccc23)cc1 (stereo not shown) [Example 2N],ED50,[1]; [4],46 mg/kg
COc1ccc(C(=O)c2cn(CCC3CCCN3C)c3ccccc23)cc1 (stereo not shown) [Example 2S],NIP: percent inhibition of non-injected paw inflammation,[3],33%
same,RPV: percent inhibition of injected paw,[3],21%
same,ED50,[1]; [4],50 mg/kg
COc1ccc(C(=O)c2c(C)n(CC3CCCN(Cc4ccccc4)C3)c3ccccc23)cc1 (stereo not shown) [Example 2T],NIP: percent inhibition of non-injected paw inflammation,[3],92%
same,RPV: percent inhibition of injected paw,[3],68%
same,ACH percent inhibition at dose 300,"[1]; Table 9, dose level 300",20%
CCN1CCCC1Cn1c(C)c(C(=O)c2ccc(OC)cc2)c2ccccc21 (stereo not shown) [Example 2Y],NIP: percent inhibition of non-injected paw inflammation,[3],46%
same,RPV: percent inhibition of injected paw,[3],15%
same,ED50,[1]; [4],43 mg/kg
COc1ccc(C(=O)c2c(C)n(C3CSCCN(C)C3)c3ccccc23)cc1 (stereo not shown) [Example 3B],inhibition in vivo at 100 mg/kg,[1]; Table 9,60%
COc1ccc(C(=O)c2c(C)n(CC3CN(C)CCS3)c3ccccc23)cc1 (stereo not shown) [Example 3C],ED50,[1]; [4],30 mg/kg
CN1CCCC(n2cc(C(=O)c3ccccc3F)c3ccccc32)C1 (stereo not shown) [Example 4D],NIP: percent inhibition of non-injected paw inflammation,[3],80%
same,RPV: percent inhibition of injected paw,[3],--
same,ACH percent inhibition at dose 10,"[1]; Table 9, dose level 10",65%
same,ACH percent inhibition at dose 30,"[1]; Table 9, dose level 30",50%
CC(C1CCCNC1)n1cc(C(=O)c2ccccc2F)c2ccccc21 (stereo not shown) [Example 4E],ED50,[1]; [4],43 mg/kg
"COc1ccc(C(=O)c2c(C)n(CC3C[S+]([O-])CCN3C)c3ccccc23)cc1 (stereo not shown) [Example 6B, 2-methyl-3-(4-methoxybenzoyl)-1-[(4-methyl-3-thiomorpholinyl)methyl]-1H-indole-S-oxide]",ED50,[1]; [4],5 mg/kg
"CCCN1CCCC(Cn2c(C)c(C(=O)c3ccc(OC)cc3)c3ccccc32)C1 (stereo not shown) [Example 7, 2-methyl-3-(4-methoxybenzoyl)-1-[(1-propyl-3-piperidinyl)methyl]-1H-indolehydrochloride]",ED50,[1]; [4],18 mg/kg
COc1ccc(C(=O)c2c(C)n(C3CCNC3)c3ccccc23)cc1 (stereo not shown) [Example 8B],ED50,[1]; [4],29 mg/kg
"COc1ccc(C(=O)c2c(C)n(CC3COCCN3C)c3ccccc23)cc1 (stereo not shown) [Example 10B, 2-methyl-3-(4-methoxybenzoyl)-1-[(4-methyl-3-morpholinyl)methyl]-1H-indole]",ED50,[1]; [4],29 mg/kg
"CN1CCCC(Cn2ccc3cc(F)ccc32)C1 (stereo not shown) [Preparation 1D, 1-[(1-methyl-3-piperidinyl)methyl]-5-fluoro-1H-indole]",ED50,"[1]; Table 10, Prepn. No. (intermediates of formula II), no route marked, read-out: ACH ED50",65 mg/kg
"Cc1cc2ccccc2n1CC1CCCN(C)C1.Cl (stereo not shown) [Preparation 1P, 2-methyl-1-[(1-methyl-3-piperidinyl)methyl]-1H-indole hydrochloride]",ED50,"[1]; iv, Table 10, Prepn. No., i.v., read-out: ACH ED50 (i.v.)",9.7 mg/kg
same,ED50,"[1]; po, Table 10, Prepn. No., p.o., read-out: ACH ED50 (p.o.)",66 mg/kg
"Cc1cc2ccccc2n1CCC1CCCCN1C (stereo not shown) [Preparation 1Q, 2-methyl-1-[2-(1-methyl-2-piperidinyl)-ethyl]-1H-indole]",inhibition in vivo at 100 mg/kg,"[1]; Table 10, Prepn. No.",30%

# Reference: patent US5817651A, “3-arylcarbonyl-1-(C-attached-N-heteryl)-1H-indoles” (Sanofi, priority 1997, dated 1998)
